Values quoted from earlier work in patent publication US20040037880A1, “Extended release formulation of divalproex sodium” (priority 2002, published 2004).
Like-named read-outs stand apart in the source and are kept apart here.

elimination half-life (adults): 6 to 17 h
elimination half-life (children): 4 to 14 h
Structure (SMILES): CCCC(CCC)C(=O)O [valproic acid]
